Data taken from ChEMBL document CHEMBL4725218, “Deep Learning Enhancing Kinome-Wide Polypharmacology Profiling: Model Construction and Experiment Validation” (J Med Chem, 2020).

What was measured:
[1] = molecular target: Vascular endothelial growth factor receptor 1 (Homo sapiens) (UniProt P17948); test: Inhibition of human VEGFR1 assessed as remaining enzyme activity at 1 uM
[2] = molecular target: Epithelial discoidin domain-containing receptor 1 (Homo sapiens) (UniProt Q08345); test: Inhibition of human DDR1 assessed as remaining enzyme activity at 0.1 uM
[3] = molecular target: T1, Muscle, skeletal receptor tyrosine-protein kinase (Homo sapiens) (UniProt O15146); test: Inhibition of human MuSK assessed as remaining enzyme activity at 0.1 uM
T1 sequence (whole entry): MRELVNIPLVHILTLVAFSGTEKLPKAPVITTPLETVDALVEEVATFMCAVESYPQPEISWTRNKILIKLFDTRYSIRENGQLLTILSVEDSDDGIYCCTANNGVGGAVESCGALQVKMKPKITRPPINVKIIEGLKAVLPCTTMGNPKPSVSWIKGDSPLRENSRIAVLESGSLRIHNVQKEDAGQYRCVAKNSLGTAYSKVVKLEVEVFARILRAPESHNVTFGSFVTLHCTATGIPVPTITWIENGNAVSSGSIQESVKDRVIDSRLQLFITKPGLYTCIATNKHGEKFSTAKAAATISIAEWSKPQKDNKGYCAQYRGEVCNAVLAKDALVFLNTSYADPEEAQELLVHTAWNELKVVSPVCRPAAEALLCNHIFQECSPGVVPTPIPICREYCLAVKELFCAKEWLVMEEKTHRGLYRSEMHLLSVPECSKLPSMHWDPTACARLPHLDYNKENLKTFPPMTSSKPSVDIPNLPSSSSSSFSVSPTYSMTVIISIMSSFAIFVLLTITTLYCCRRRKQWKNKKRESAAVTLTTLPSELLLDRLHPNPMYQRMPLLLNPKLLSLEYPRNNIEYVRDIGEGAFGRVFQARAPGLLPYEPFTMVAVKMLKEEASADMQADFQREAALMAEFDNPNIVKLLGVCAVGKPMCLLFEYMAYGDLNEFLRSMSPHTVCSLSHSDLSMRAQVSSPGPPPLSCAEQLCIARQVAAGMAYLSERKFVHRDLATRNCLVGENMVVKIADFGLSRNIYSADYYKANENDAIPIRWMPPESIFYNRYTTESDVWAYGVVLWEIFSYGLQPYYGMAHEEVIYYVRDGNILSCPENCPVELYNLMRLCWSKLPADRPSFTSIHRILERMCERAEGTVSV

[4] = molecular target: Macrophage colony-stimulating factor 1 receptor (Homo sapiens) (UniProt P07333); test: Inhibition of human FMS assessed as remaining enzyme activity at 0.1 uM
[5] = molecular target: Tyrosine-protein kinase ABL2 (Mus musculus) (UniProt Q4JIM5); test: Inhibition of mouse ARG assessed as remaining enzyme activity at 0.1 uM
[6] = molecular target: Tyrosine-protein kinase ABL1 (Homo sapiens) (UniProt P00519); test: Inhibition of human ABL assessed as remaining enzyme activity at 0.01 uM
[7] = molecular target: Tyrosine-protein kinase Lyn (Homo sapiens) (UniProt P07948); test: Inhibition of human LYN assessed as remaining enzyme activity at 0.01 uM
[8] = molecular target: Serine/threonine-protein kinase TAO1 (Homo sapiens) (UniProt Q7L7X3); test: Inhibition of human TAO1 assessed as remaining enzyme activity at 1 uM
[9] = molecular target: Vascular endothelial growth factor receptor 3 (Homo sapiens) (UniProt P35916); test: Inhibition of human VEGFR3 assessed as remaining enzyme activity at 0.1 uM
[10] = molecular target: T2, Homeodomain-interacting protein kinase 4 (Homo sapiens) (UniProt Q8NE63); test: Inhibition of human HIPK4 assessed as remaining enzyme activity at 0.1 uM
T2 sequence (whole entry): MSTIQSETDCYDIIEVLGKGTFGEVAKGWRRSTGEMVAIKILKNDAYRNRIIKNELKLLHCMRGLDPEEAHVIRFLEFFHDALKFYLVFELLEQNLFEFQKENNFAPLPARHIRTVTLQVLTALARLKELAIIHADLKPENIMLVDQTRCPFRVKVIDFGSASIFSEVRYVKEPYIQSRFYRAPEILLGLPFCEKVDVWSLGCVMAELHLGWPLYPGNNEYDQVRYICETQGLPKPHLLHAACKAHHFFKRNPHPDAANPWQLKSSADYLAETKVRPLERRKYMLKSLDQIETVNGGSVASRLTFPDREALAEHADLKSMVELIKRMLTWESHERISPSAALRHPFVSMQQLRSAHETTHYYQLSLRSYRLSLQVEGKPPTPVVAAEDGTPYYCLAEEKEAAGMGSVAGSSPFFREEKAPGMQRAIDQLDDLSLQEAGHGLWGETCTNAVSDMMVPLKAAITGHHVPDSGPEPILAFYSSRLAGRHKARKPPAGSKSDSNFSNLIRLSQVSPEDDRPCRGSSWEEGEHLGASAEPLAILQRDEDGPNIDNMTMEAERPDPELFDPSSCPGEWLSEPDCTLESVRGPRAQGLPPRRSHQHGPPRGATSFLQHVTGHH

[11] = molecular target: T1, Muscle, skeletal receptor tyrosine-protein kinase (Homo sapiens); test: Inhibition of human MuSK assessed as remaining enzyme activity at 1 uM
[12] = molecular target: Mitogen-activated protein kinase kinase kinase kinase 5 (Homo sapiens) (UniProt Q9Y4K4); test: Inhibition of human MAP4K5 assessed as remaining enzyme activity at 0.1 uM
[13] = molecular target: Epithelial discoidin domain-containing receptor 1 (Homo sapiens) (UniProt Q08345); test: Inhibition of human DDR1 assessed as remaining enzyme activity at 0.01 uM
[14] = molecular target: Mitogen-activated protein kinase kinase kinase 20 (Homo sapiens) (UniProt Q9NYL2); test: Inhibition of human ZAK assessed as remaining enzyme activity at 0.01 uM
[15] = molecular target: Tyrosine-protein kinase ABL1 (Homo sapiens) (UniProt P00519); test: Inhibition of human ABL assessed as remaining enzyme activity at 1 uM
[16] = molecular target: MAP kinase-interacting serine/threonine-protein kinase 2 (Homo sapiens) (UniProt Q9HBH9); test: Inhibition of human MNK2 assessed as remaining enzyme activity at 1 uM
[17] = molecular target: Macrophage colony-stimulating factor 1 receptor (Homo sapiens) (UniProt P07333); test: Inhibition of human FMS assessed as remaining enzyme activity at 0.01 uM

Chain of Macrophage colony-stimulating factor 1 receptor (Homo sapiens) (P07333 whole entry): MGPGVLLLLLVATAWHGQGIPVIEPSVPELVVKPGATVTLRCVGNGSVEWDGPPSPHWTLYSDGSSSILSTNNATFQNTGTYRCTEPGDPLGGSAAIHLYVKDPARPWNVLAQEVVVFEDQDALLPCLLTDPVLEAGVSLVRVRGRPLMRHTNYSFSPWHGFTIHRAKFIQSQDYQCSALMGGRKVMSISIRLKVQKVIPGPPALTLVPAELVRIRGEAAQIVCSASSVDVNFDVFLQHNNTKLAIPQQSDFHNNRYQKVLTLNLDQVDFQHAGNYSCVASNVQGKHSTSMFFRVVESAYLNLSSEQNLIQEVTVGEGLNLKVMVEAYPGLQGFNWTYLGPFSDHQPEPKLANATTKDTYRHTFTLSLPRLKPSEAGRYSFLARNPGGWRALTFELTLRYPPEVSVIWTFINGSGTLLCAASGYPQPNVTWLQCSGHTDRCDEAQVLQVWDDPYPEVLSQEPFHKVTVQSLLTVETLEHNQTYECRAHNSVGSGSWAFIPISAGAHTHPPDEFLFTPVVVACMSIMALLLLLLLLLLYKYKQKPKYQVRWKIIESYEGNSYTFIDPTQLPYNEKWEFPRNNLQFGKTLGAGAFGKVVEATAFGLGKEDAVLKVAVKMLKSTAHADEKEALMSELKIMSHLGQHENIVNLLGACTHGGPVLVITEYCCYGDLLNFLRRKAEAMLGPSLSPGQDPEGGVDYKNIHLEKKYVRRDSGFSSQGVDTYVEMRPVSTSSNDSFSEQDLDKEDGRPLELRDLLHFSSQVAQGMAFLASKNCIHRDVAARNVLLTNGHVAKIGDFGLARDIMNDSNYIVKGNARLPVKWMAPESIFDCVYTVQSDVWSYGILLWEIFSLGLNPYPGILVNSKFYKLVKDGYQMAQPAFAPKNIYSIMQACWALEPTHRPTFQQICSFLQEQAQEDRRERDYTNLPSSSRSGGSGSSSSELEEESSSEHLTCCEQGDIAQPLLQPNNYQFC
Chain of Epithelial discoidin domain-containing receptor 1 (Homo sapiens) (Q08345 whole entry, the tested form may be a part): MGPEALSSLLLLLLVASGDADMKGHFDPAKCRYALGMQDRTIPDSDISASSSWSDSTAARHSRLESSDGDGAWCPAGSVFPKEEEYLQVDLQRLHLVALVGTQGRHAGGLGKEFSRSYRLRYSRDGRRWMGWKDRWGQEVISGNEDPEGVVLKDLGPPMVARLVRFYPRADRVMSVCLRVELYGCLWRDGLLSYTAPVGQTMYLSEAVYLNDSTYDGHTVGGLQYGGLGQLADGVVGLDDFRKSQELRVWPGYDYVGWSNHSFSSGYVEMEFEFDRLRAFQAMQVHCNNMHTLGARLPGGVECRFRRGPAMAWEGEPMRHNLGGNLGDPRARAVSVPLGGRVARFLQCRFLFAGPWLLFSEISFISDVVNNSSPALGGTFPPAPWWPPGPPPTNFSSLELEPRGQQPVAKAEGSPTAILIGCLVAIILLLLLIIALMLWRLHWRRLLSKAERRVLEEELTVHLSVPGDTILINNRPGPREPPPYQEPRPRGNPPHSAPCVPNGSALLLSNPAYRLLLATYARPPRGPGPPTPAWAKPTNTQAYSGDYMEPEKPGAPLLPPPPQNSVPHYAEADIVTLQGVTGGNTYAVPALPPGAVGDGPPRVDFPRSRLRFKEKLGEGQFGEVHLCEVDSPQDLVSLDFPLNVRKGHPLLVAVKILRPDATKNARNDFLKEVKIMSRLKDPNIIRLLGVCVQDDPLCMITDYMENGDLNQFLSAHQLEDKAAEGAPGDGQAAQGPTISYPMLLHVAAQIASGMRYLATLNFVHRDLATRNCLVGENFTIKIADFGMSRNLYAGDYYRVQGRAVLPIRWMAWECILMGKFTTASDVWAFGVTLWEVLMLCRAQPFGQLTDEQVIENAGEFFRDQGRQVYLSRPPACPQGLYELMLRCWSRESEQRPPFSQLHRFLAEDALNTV
Chain of Tyrosine-protein kinase ABL1 (Homo sapiens) (P00519 whole entry): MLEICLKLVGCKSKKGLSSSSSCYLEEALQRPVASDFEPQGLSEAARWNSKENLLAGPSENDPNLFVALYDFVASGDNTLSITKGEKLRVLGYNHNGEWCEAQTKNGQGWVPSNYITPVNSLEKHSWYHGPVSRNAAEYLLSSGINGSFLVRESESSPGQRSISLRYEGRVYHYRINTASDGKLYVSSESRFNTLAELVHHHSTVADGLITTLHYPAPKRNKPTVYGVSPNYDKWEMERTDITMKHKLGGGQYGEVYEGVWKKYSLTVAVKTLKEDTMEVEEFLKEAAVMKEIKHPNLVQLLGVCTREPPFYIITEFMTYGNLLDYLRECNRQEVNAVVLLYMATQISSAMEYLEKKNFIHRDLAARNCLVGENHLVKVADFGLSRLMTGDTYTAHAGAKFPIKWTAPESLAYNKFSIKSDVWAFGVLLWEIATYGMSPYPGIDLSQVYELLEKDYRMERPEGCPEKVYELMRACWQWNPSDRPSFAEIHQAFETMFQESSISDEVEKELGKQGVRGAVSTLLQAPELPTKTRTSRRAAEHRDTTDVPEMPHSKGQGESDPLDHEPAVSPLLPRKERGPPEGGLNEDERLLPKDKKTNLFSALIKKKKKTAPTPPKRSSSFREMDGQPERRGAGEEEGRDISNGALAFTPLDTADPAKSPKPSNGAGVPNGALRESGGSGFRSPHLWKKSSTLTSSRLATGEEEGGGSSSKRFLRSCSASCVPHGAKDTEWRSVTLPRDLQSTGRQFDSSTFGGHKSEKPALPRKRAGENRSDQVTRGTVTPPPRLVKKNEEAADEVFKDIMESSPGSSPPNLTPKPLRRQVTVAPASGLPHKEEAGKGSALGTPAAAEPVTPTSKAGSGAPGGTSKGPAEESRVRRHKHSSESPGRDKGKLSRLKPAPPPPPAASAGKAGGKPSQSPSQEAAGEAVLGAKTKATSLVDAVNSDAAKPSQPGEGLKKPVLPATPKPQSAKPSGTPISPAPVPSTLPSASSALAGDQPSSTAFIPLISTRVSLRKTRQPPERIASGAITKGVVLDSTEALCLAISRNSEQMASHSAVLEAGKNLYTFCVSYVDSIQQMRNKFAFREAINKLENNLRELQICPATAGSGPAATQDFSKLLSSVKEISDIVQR
Chain of Tyrosine-protein kinase Lyn (Homo sapiens) (P07948 2-512 limits assumed): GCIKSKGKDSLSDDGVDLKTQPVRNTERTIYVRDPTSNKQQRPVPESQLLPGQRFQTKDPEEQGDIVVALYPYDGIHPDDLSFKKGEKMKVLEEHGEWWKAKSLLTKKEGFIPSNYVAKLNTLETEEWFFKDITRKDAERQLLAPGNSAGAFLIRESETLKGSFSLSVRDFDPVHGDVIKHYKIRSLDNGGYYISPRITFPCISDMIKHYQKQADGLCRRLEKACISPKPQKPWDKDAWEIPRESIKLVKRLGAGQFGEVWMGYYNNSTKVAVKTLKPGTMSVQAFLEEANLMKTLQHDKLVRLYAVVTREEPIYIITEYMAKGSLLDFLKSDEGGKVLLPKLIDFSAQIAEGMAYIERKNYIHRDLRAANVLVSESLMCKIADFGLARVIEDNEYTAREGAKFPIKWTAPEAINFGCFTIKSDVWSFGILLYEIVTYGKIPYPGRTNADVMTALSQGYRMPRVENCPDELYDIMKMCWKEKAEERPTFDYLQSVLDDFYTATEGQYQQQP
Chain of MAP kinase-interacting serine/threonine-protein kinase 2 (Homo sapiens) (Q9HBH9 whole entry, looked up): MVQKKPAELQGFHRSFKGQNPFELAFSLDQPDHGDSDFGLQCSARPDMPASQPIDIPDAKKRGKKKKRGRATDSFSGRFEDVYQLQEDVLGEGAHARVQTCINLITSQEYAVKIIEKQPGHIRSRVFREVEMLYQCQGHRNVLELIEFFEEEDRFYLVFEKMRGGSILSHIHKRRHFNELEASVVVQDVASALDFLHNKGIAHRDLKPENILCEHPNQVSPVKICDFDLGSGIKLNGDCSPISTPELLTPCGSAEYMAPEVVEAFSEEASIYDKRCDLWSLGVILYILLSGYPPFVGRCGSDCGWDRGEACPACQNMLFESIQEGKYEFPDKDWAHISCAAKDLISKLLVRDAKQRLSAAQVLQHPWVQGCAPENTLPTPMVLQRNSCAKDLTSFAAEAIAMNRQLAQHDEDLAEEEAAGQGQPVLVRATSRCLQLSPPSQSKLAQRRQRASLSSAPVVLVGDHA
Chain of Serine/threonine-protein kinase TAO1 (Homo sapiens) (Q7L7X3 whole entry): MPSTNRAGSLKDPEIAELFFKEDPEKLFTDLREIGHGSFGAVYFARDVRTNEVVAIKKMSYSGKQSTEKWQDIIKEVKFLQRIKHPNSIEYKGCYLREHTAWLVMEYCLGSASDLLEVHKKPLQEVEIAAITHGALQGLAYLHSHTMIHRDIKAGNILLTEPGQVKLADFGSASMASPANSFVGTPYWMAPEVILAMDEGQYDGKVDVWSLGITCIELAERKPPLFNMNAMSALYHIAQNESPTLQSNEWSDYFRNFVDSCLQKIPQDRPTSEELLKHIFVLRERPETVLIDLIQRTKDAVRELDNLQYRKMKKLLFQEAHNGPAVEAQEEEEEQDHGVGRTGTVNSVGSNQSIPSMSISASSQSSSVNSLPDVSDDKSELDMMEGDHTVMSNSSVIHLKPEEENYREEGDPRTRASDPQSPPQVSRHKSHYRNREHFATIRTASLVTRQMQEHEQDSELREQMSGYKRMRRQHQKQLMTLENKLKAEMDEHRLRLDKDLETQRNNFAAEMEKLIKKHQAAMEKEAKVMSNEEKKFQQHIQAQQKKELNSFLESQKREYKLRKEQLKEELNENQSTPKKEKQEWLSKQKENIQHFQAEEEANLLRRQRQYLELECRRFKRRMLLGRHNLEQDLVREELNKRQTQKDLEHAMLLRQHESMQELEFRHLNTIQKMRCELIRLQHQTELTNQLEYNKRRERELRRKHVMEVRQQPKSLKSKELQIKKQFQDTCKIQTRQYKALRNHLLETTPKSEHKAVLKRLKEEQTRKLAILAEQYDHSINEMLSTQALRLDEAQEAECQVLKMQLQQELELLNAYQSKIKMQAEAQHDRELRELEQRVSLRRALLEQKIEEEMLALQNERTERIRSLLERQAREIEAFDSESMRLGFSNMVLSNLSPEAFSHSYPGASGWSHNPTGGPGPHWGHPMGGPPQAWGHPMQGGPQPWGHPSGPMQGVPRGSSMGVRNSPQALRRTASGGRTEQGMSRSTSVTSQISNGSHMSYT

`CNC(=O)c1cc(Oc2ccc(NC(=O)Nc3ccc(Cl)c(C(F)(F)F)c3)c(F)c2)ccn1` was tested, and the Activity [1] was 3%, the Activity [2] was 43% and the Activity [3] was 92%. For the same compound, the Activity [4] was 36%, the Activity [5] was 29% and the Activity [6] was 79%. For the same compound, the Activity [7] was 32%, the Activity [8] was 42% and the Activity [9] was 1%. It also gave an Activity [10] of 3%, an Activity [11] of 21% and an Activity [12] of 37%. The Activity [13] was 92%, the Activity [14] was 27% and the Activity [15] was 8%. It also gave an Activity [16] of 34% and an Activity [17] of 73%.
